Assay results: the Kinase Knowledgebase extract (Sharma et al. 2016)

Target: MAPK14 (human) (UniProt Q16539)
Test: Inhibition of MAPK14 Kinase Activity

MAPK14 (human), sequence (Q16539 whole entry, looked up): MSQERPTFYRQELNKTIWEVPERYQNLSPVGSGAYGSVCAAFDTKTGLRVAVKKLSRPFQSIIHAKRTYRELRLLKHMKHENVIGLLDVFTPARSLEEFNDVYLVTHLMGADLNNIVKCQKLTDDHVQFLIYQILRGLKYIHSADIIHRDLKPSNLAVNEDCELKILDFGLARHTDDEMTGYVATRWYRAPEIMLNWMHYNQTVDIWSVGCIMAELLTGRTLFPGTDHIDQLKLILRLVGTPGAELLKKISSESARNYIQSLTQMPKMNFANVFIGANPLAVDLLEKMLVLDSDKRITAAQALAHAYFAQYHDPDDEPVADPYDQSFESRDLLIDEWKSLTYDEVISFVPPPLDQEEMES

IC50, ≤ 10 µM:
CC(C)(C)C(=O)Nc1cc(Cl)c(N2CC(Cc3ccc(F)cc3F)CCC2=O)c(Cl)c1 (stereo not given), O=C1CCC(Cc2ccc([N+](=O)[O-])cc2)CN1c1c(Cl)cccc1Cl (stereo not given), O=C1CCC(Sc2cc(Cl)cc(Cl)c2)CN1c1c(Cl)csc1Cl (stereo not given), COC(=O)CCc1cc(Cl)c(N2CC(Cc3ccc(F)cc3F)CCC2=O)c(Cl)c1 (stereo not given), CNc1cnc(Cl)c(N2CC(Oc3ccc(F)cc3F)CCC2=O)c1Cl (stereo not given), CNC1CC(Cl)C(N2CC(Oc3ccc(F)cc3F)CCC2=O)C(Cl)C1 (stereo not given), O=C1CCC(Cc2ccc(F)cc2F)CN1C1C(Cl)CCCC1Cl (stereo not given), COc1ccccc1CC1CSC(=O)N(c2c(Cl)cccc2Cl)C1 (stereo not given), O=C(CNc1cc(Cl)c(N2CC(Cc3ccc(F)cc3F)CCC2=O)c(Cl)c1)NO (stereo not given), Cc1cccc(C)c1N1CC(Cc2ccccc2OCC(=O)Nc2cc(C(C)(C)C)nn2C)CCC1=O (stereo not given), O=C1CCC(Sc2ccc(F)cc2F)CN1C1C(Cl)CCC(O)C1Cl (stereo not given), O=C1COC(Cc2ccc(Cl)cc2)CN1c1c(Cl)cccc1Cl (stereo not given), Nc1ccc(Cl)c(N2CC(Cc3ccc(F)cc3F)COC2=O)c1Cl (stereo not given), CC(=O)Nc1cnc(Cl)c(N2CC(Oc3ccc(F)cc3F)CCC2=O)c1Cl (stereo not given), O=C1CCC(Cc2ccc(F)cc2F)CN1c1c(Cl)sc(CO)c1Cl (stereo not given), O=C1NCC(Cc2ccc3ccccc3c2)CN1c1c(Cl)cccc1Cl (stereo not given), Nc1ncc(Cl)c(N2CC(Oc3ccc(F)cc3F)CCC2=O)c1Cl (stereo not given), CC(=O)Nc1cc(Cl)c(N2CC(Sc3ccc(F)cc3F)CCC2=O)c(Cl)c1 (stereo not given), O=C1CCC(Cc2ccc(F)cc2F)CN1C1C(Cl)CC(CO)CC1Cl (stereo not given), C[C@@H]1C[C@H](Cc2ccc(F)cc2F)CN(c2c(Cl)cc(NC(=O)OC(C)(C)C)cc2Cl)C1=O, Cc1cc(C)cc(OC2CCC(=O)N(c3c(Cl)cncc3Cl)C2)c1 (stereo not given), CC(=O)NCCNc1cc(Cl)c(N2CC(Cc3ccc(F)cc3F)CCC2=O)c(Cl)c1 (stereo not given), O=C(NCc1ccccc1CC1CCC(=O)N(c2c(Cl)cccc2Cl)C1)NC1CCCCC1 (stereo not given), Cc1ccccc1CC1CCC(=O)N(c2c(Cl)cncc2Cl)C1 (stereo not given), COc1ccc(CC2CNC(=O)N(c3c(Cl)cccc3Cl)C2)cc1 (stereo not given), Cc1ccc(OC2CCC(=O)N(c3c(Cl)csc3Cl)C2)cc1 (stereo not given), Nc1ccc(CC2CCC(=O)N(c3c(Cl)cccc3Cl)C2)cc1 (stereo not given), Cc1ccccc1OC1CCC(=O)N(c2c(Cl)cncc2Cl)C1 (stereo not given), O=C1OCC(Cc2cc(Cl)cc(Cl)c2)CN1c1c(Cl)cccc1Cl (stereo not given), O=C1CCC(Cc2ccc(F)cc2F)CN1c1c(Cl)cc(CO)nc1Cl (stereo not given), O=C1CCC(Cc2ccc(F)cc2F)CN1c1c(Cl)cc(Br)cc1Cl (stereo not given), CNC1CCC(Cl)C(N2CC(Oc3ccc(F)cc3F)CCC2=O)C1Cl (stereo not given), Cc1cc(CCCCN(C)C)cc(C)c1N1CC(Cc2ccc(F)cc2F)CCC1=O (stereo not given), O=C1CSC(Cc2ccc(F)cc2F)CN1c1c(Cl)cccc1Cl (stereo not given), CNc1ncc(Cl)c(N2CC(Cc3ccc(F)cc3F)CCC2=O)c1Cl (stereo not given), Cc1cc2c(cc1NC(=O)NCc1ccccc1CC1CCC(=O)N(c3c(Cl)cccc3Cl)C1)C(C)(C)CCC2 (stereo not given), O=C(O)CCC(=O)Nc1cc(Cl)c(N2CC(Cc3ccc(F)cc3F)CCC2=O)c(Cl)c1 (stereo not given), O=C1CCC(Oc2ccc(F)cc2F)CN1C1C(Cl)CC(O)CC1Cl (stereo not given), Cc1ccc(OC2CCC(=O)N(c3c(Cl)cncc3Cl)C2)c(C)c1 (stereo not given), CC(C)(C)OC(=O)Nc1cc(Cl)c(N2CC(C(O)c3ccc(F)cc3F)CCC2=O)c(Cl)c1 (stereo not given), Cc1cc(C(=O)NCCN(C)C)cc(C)c1N1CC(Cc2ccc(F)cc2F)CNC1=O (stereo not given), O=C1CCC(Cc2ccccc2F)CN1c1c(Cl)csc1Cl (stereo not given), O=C1CCC(Cc2cc(Cl)cc(Cl)c2)CN1c1c(Cl)cncc1Cl (stereo not given), CCNC(=O)NCc1ccccc1CC1CCC(=O)N(c2c(Cl)cccc2Cl)C1 (stereo not given), O=C1CCC(Oc2ccc(F)cc2F)CN1c1c(Cl)ncc(CO)c1Cl (stereo not given), CN1CC(Cc2ccc3ccccc3c2)CN(c2c(Cl)cccc2Cl)C1=O (stereo not given), O=C1CCC(Cc2cccc3ccccc23)CN1c1c(Cl)cncc1Cl (stereo not given), Cc1ccc(CC2CSC(=O)N(c3c(Cl)cccc3Cl)C2)c(C)c1 (stereo not given), N[C@@H](Cc1ccc(O)cc1)C(=O)Nc1cc(Cl)c(N2CC(Cc3ccc(F)cc3F)CCC2=O)c(Cl)c1 (stereo not given in full), O=C(c1ccc(F)cc1F)C1CCC(=O)N(c2c(Cl)cccc2Cl)C1 (stereo not given), O=C1CSC(Cc2cc(Cl)cc(Cl)c2)CN1c1c(Cl)cccc1Cl (stereo not given), O=C(NCc1ccccc1CC1CCC(=O)N(c2c(Cl)cccc2Cl)C1)Nc1cccc(C(F)(F)F)c1 (stereo not given), N#Cc1ccccc1CC1CCC(=O)N(c2c(Cl)cccc2Cl)C1 (stereo not given), O=C1CCC(Cc2cccc3ccccc23)CN1C1C(Cl)CCCC1Cl (stereo not given), Cc1cc(C)cc(CC2CCC(=O)N(c3c(Cl)csc3Cl)C2)c1 (stereo not given), O=C1CCC(Cc2ccc(F)cc2F)CN1c1c(Cl)ccc(CO)c1Cl (stereo not given), O=C1SCC(Cc2ccc(F)cc2F)CN1c1c(Cl)cc(O)cc1Cl (stereo not given), COc1ccccc1CC1CNC(=O)N(c2c(Cl)cccc2Cl)C1 (stereo not given), COc1ccccc1SC1CCC(=O)N(c2c(Cl)csc2Cl)C1 (stereo not given), O=C1CSC(Cc2ccc(Cl)cc2)CN1c1c(Cl)cccc1Cl (stereo not given), CCOC(=O)CN(C(=O)OC(C)(C)C)c1cc(Cl)c(N2CC(Cc3ccc(F)cc3F)CCC2=O)c(Cl)c1 (stereo not given), Cc1ccc(CC2CCC(=O)N(C3C(Cl)CCCC3Cl)C2)cc1 (stereo not given), CC(C)(C)OC(=O)N1CCC(Nc2cc(Cl)c(N3CC(Cc4ccc(F)cc4F)CCC3=O)c(Cl)c2)CC1 (stereo not given), O=C1CCC(Cc2ccccc2)CN1c1ccccc1Cl (stereo not given), O=C1COC(Cc2cc(F)cc(F)c2)CN1c1c(Cl)cccc1Cl (stereo not given), O=C1CCC(Oc2ccc(F)cc2F)CN1c1c(Cl)cnc(O)c1Cl (stereo not given), O=C1CCC(Oc2ccc(F)cc2)CN1c1c(Cl)cccc1Cl (stereo not given), Nc1ccc(N2CC(Cc3ccc(F)cc3F)CCC2=O)c(Cl)c1 (stereo not given), O=C1CCC(Sc2ccccc2F)CN1c1c(Cl)ccnc1Cl (stereo not given), Cc1ccc(CC2CNC(=O)N(c3c(Cl)cccc3Cl)C2)c(C)c1 (stereo not given), Cc1ccc(SC2CCC(=O)N(c3c(Cl)csc3Cl)C2)c(C)c1 (stereo not given), CNc1ccc(Cl)c(N2CC(Sc3ccc(F)cc3F)CCC2=O)c1Cl (stereo not given), O=C1CCC(Oc2cc(Cl)cc(Cl)c2)CN1c1c(Cl)cncc1Cl (stereo not given), O=C1CCC(Cc2ccc3ccccc3c2)CN1c1c(Cl)ccnc1Cl (stereo not given), NC1CC(Cl)C(N2CC(Cc3ccc(F)cc3F)CCC2=O)C(Cl)C1 (stereo not given), O=C1COC(Cc2ccc(Cl)cc2Cl)CN1c1c(Cl)cccc1Cl (stereo not given), O=C1CCC(Sc2ccc3ccccc3c2)CN1C1C(Cl)CCCC1Cl (stereo not given), O=C1CCC(Cc2ccccc2Cl)CN1C1C(Cl)CCCC1Cl (stereo not given), O=C1CCC(Oc2ccc(F)cc2F)CN1C1C(Cl)CCCC1Cl (stereo not given), CN1CC(Cc2cc(Cl)cc(Cl)c2)CN(c2c(Cl)cccc2Cl)C1=O (stereo not given)
